{"source": "patent US10970594B2", "about": "“Magnetic resonance maps for analyzing tissue” (Tel HaShomer Medical Research Infrastructure and Services …, priority 2011, dated 2021)", "key": {"[1]": {"details": "common adverse effects hypertension and proteinuria; thromboembolic disease and hemorrhage infrequent; cited from earlier work"}, "recurrent GBM": {"test_system": "recurrent GBM", "test": "Delayed enhancement subtraction maps and T1-weighted MRI of patients treated with bevacizumab (Example 5)", "format": "in vivo, human", "method": "In the present example, the delayed enhancement subtraction maps of the present embodiments are used for analyzing brain MRI of subjects treated with bevacizumab.\nFour patients were subjected to bevacizumab (Avastin®) treatment. High resolution T1-weighted MR images were acquired and subtraction maps were calculated from these images. Acquisition sessions were held before treatment and several times after treatment. The predetermined time interval between two subtracted images was 75 minutes. Histological analysis was performed with tissue samples obtained from the on of these patients which underwent surgery after treatment with Avastin."}, "GBM lesion": {"test_system": "GBM lesion", "test": "Vessel function maps of GBM patients given Bevacizumab IV after failing first line chemoradiation (Example 2, preliminary results)", "format": "in vivo, human", "details": "for change of the lesion in the map: patient #1, GBM lesion of FIG. 8", "method": "Two GBM patients who failed first line chemoradiation were given Bevacizumab as an IV infusion, 10 mg/kg body weight every 2 weeks (standard Bevacizumab regimen for GBM patients).\nThe patients were recruited before Bevacizumab treatment was initiated. They underwent the first MRI exam prior to treatment. Second and third MRI exams are performed 1 week and 1 month after the administration of the first Bevacizumab dose. Two more MRI exams are performed at 3 and 5 months post initiation of treatment.\nVessel function maps were calculated at 15 and 75 min after contrast injection. Examples of two patients with 3 GBM lesions with different presentations of response to Avastin, are shown below. The response pattern to Avastin and the physiological meaning of the observed changes in the maps, are being studied."}, "[2]": {"details": "patient of FIGS. 30A-F, at 3 months"}, "[3]": {"details": "patient of FIGS. 30A-F, first month after initiation of treatment"}, "[4]": {"details": "patient of FIGS. 31A-F, first 3 months"}, "[5]": {"details": "patient of FIGS. 32A-H, at 1 month"}, "[6]": {"details": "patient of FIGS. 32A-H, at 3 months, after re-irradiation"}, "[7]": {"details": "patient of FIGS. 32A-H, first week"}, "[8]": {"details": "patient #2, FIG. 12, 1 week after the first treatment"}}, "data": [{"substance": "bevacizumab", "values": [{"measurement": "tolerability", "setting": "[1]", "result": "generally well tolerated"}, {"measurement": "enhancing lesion decreased by, of its original volume", "setting": "recurrent GBM; [2]", "result": "about 57%"}, {"measurement": "red volume decreased by", "setting": "recurrent GBM; [2]", "result": "about 40%"}, {"measurement": "blue volume increased by", "setting": "recurrent GBM; patient of FIGS. 30A-F, at 3 months, suggesting progression", "result": "about 25%"}, {"measurement": "blue volume", "setting": "recurrent GBM; [3]", "result": "stable"}, {"measurement": "enhancing lesion volume (on T1-Gd) decreased by", "setting": "recurrent GBM; [3]", "result": "about 50%"}, {"measurement": "red volume decreased by", "setting": "recurrent GBM; [3]", "result": "about 50%"}, {"measurement": "blue volume", "setting": "recurrent GBM; patient of FIGS. 31A-F, 5 months MRI, after re-irradiation during bevacizumab treatment", "result": "decreased significantly"}, {"measurement": "blue volume", "setting": "recurrent GBM; [4]", "result": "increased significantly"}, {"measurement": "edema", "setting": "recurrent GBM; [4]", "result": "decreased"}, {"measurement": "lesion volume on T1-Gd", "setting": "recurrent GBM; [4]", "result": "stable"}, {"measurement": "blue volume increased by", "setting": "recurrent GBM; [5]", "result": 200, "unit": "%"}, {"measurement": "enhancing volume increased by", "setting": "recurrent GBM; [5]", "result": 70, "unit": "%"}, {"measurement": "red volume decreased by", "setting": "recurrent GBM; [5]", "result": "about 50%"}, {"measurement": "blue volume increased by", "setting": "recurrent GBM; [6]", "result": "over 500%"}, {"measurement": "enhancing lesion volume increased by", "setting": "recurrent GBM; [6]", "result": "over 500%"}, {"measurement": "red volume increased by", "setting": "recurrent GBM; [6]", "result": "over 500%"}, {"measurement": "blue volume decreased by", "setting": "recurrent GBM; [7]", "result": 20, "unit": "%"}, {"measurement": "enhancing lesion volume (on T1-Gd)", "setting": "recurrent GBM; [7]", "result": "stable"}, {"measurement": "red volume increased by", "setting": "recurrent GBM; [7]", "result": 30, "unit": "%"}, {"measurement": "change of the lesion in the map", "setting": "GBM lesion; 1 month follow-up", "result": "minor changes"}, {"measurement": "change of the lesion in the map", "setting": "GBM lesion; first week of treatment", "result": "became more prominently blue"}, {"measurement": "blue component", "setting": "GBM lesion; patient #1, recurrent GBM lesion of FIG. 10, 1 month later", "result": "increase"}, {"measurement": "blue component", "setting": "GBM lesion; patient #1, recurrent GBM lesion of FIG. 10, first week post treatment", "result": "decrease"}, {"measurement": "blue component", "setting": "GBM lesion; [8]", "result": "has not decreased"}, {"measurement": "edema", "setting": "GBM lesion; [8]", "result": "somewhat relieved"}, {"measurement": "pressure on the brain", "setting": "GBM lesion; [8]", "result": "relieved"}, {"measurement": "red component of the lesion", "setting": "GBM lesion; [8]", "result": "significantly decreased"}, {"measurement": "blue component", "setting": "GBM lesion; patient #2, FIG. 12, 3-months follow-up, in parallel to clinical deterioration, no sign of progression on conventional MRI", "result": "continued to increase"}]}]}
